Measurements from ChEMBL document CHEMBL1255213, “Bottromycin derivatives: efficient chemical modifications of the ester moiety and evaluation of anti-MRSA and anti-VRE activities” (2010).
In brackets after ≈: the same amount, converted by molar mass.

Tests used:
Type in all cases: functional
[1] = tested on: Staphylococcus aureus; assay: Antimicrobial activity against Staphylococcus aureus FDA209P by standard serial-dilution technique
[2] = tested on: Staphylococcus aureus; assay: Antimicrobial activity against Staphylococcus aureus Smith by standard serial-dilution technique
[3] = tested on: Staphylococcus aureus; assay: Antimicrobial activity against methicillin-resistant Staphylococcus aureus HH1 by standard serial-dilution technique
[4] = tested on: Staphylococcus aureus; assay: Antimicrobial activity against methicillin-resistant Staphylococcus aureus 92-1191 by standard serial-dilution technique
[5] = tested on: Enterococcus faecium; assay: Antimicrobial activity against Enterococcus faecium NCTC 12201 by standard serial-dilution technique
[6] = tested on: Enterococcus faecium; assay: Antimicrobial activity against Enterococcus faecium NCTC 12203 by standard serial-dilution technique
[7] = tested on: Staphylococcus aureus; assay: Antimicrobial activity against methicillin-resistant Staphylococcus aureus assessed as rate of residual activity; design: concentration or dose not given beside the values

SMILES | MIC [1] [µg/mL] | MIC [2] [µg/mL] | MIC [3] [µg/mL] | MIC [4] [µg/mL] | MIC [5] [µg/mL] | MIC [6] [µg/mL] | Activity [7] [%]
CC(C)[C@@H]1NC(=O)[C@@H]2[C@H](C)CCN2C(=O)CN/C(=N\[C@H](C(=O)N[C@H](C(=O)N[C@H](CC(=O)N2CCOCC2)c2nccs2)[C@@H](C)c2ccccc2)C(C)(C)C)[C@H](C(C)(C)C)NC1=O | 16 (≈ 18.2 µM) | 8 (≈ 9.11 µM) | 16 (≈ 18.2 µM) | 32 (≈ 36.4 µM) | 16 (≈ 18.2 µM) | 4 (≈ 4.56 µM) | 100
COC(=O)C[C@@H](NC(=O)[C@@H](NC(=O)[C@@H](/N=C1\NCC(=O)N2CC[C@@H](C)[C@H]2C(=O)N[C@@H](C(C)C)C(=O)N[C@H]1C(C)(C)C)C(C)(C)C)[C@@H](C)c1ccccc1)c1nccs1 | 1 (≈ 1.21 µM) | 1 (≈ 1.21 µM) | 1 (≈ 1.21 µM) | 2 (≈ 2.43 µM) | 1 (≈ 1.21 µM) | 0.5 (≈ 0.607 µM) | 0
CC(C)[C@@H]1NC(=O)[C@@H]2[C@H](C)CCN2C(=O)CN/C(=N\[C@H](C(=O)N[C@H](C(=O)N[C@H](CC(=O)O)c2nccs2)[C@@H](C)c2ccccc2)C(C)(C)C)[C@H](C(C)(C)C)NC1=O | 64 (≈ 79.1 µM) | 64 (≈ 79.1 µM) | 64 (≈ 79.1 µM) | 128 (≈ 158 µM) | 128 (≈ 158 µM) | 32 (≈ 39.6 µM) | –
CC(C)[C@@H]1NC(=O)[C@@H]2[C@H](C)CCN2C(=O)CN/C(=N\[C@H](C(=O)N[C@H](C(=O)N[C@H](CC(=O)NN)c2nccs2)[C@@H](C)c2ccccc2)C(C)(C)C)[C@H](C(C)(C)C)NC1=O | 16 (≈ 19.4 µM) | 16 (≈ 19.4 µM) | 16 (≈ 19.4 µM) | 32 (≈ 38.9 µM) | 8 (≈ 9.72 µM) | 4 (≈ 4.86 µM) | 86
CC(C)[C@@H]1NC(=O)[C@@H]2[C@H](C)CCN2C(=O)CN/C(=N\[C@H](C(=O)N[C@H](C(=O)N[C@H](CC(=O)NCc2ccccc2)c2nccs2)[C@@H](C)c2ccccc2)C(C)(C)C)[C@H](C(C)(C)C)NC1=O | 8 (≈ 8.91 µM) | 8 (≈ 8.91 µM) | 8 (≈ 8.91 µM) | 8 (≈ 8.91 µM) | 8 (≈ 8.91 µM) | 2 (≈ 2.23 µM) | 71
C#CCNC(=O)C[C@@H](NC(=O)[C@@H](NC(=O)[C@@H](/N=C1\NCC(=O)N2CC[C@@H](C)[C@H]2C(=O)N[C@@H](C(C)C)C(=O)N[C@H]1C(C)(C)C)C(C)(C)C)[C@@H](C)c1ccccc1)c1nccs1 | 8 (≈ 9.46 µM) | 8 (≈ 9.46 µM) | 8 (≈ 9.46 µM) | 16 (≈ 18.9 µM) | 4 (≈ 4.73 µM) | 2 (≈ 2.36 µM) | 100
CC(C)[C@@H]1NC(=O)[C@@H]2[C@H](C)CCN2C(=O)CN/C(=N\[C@H](C(=O)N[C@H](C(=O)N[C@H](CC(=O)N2CCSC2)c2nccs2)[C@@H](C)c2ccccc2)C(C)(C)C)[C@H](C(C)(C)C)NC1=O | 4 (≈ 4.54 µM) | 4 (≈ 4.54 µM) | 8 (≈ 9.09 µM) | 8 (≈ 9.09 µM) | 8 (≈ 9.09 µM) | 2 (≈ 2.27 µM) | 100
CC(C)[C@@H]1NC(=O)[C@@H]2[C@H](C)CCN2C(=O)CN/C(=N\[C@H](C(=O)N[C@H](C(=O)N[C@H](CC(=O)N2CCSCC2)c2nccs2)[C@@H](C)c2ccccc2)C(C)(C)C)[C@H](C(C)(C)C)NC1=O | 8 (≈ 8.95 µM) | 4 (≈ 4.47 µM) | 8 (≈ 8.95 µM) | 8 (≈ 8.95 µM) | 4 (≈ 4.47 µM) | 4 (≈ 4.47 µM) | 100
CC(C)[C@@H]1NC(=O)[C@@H]2[C@H](C)CCN2C(=O)CN/C(=N\[C@H](C(=O)N[C@H](C(=O)N[C@H](CC(=O)N2CCN(C(=O)OC(C)(C)C)CC2)c2nccs2)[C@@H](C)c2ccccc2)C(C)(C)C)[C@H](C(C)(C)C)NC1=O | 8 (≈ 8.19 µM) | 4 (≈ 4.09 µM) | 8 (≈ 8.19 µM) | 8 (≈ 8.19 µM) | 8 (≈ 8.19 µM) | 4 (≈ 4.09 µM) | 42
CC(C)[C@@H]1NC(=O)[C@@H]2[C@H](C)CCN2C(=O)CN/C(=N\[C@H](C(=O)N[C@H](C(=O)N[C@H](CC(=O)N2CCNCC2)c2nccs2)[C@@H](C)c2ccccc2)C(C)(C)C)[C@H](C(C)(C)C)NC1=O | 64 (≈ 73 µM) | 32 (≈ 36.5 µM) | 64 (≈ 73 µM) | 128 (≈ 146 µM) | 32 (≈ 36.5 µM) | 32 (≈ 36.5 µM) | –
C#CCN1CCN(C(=O)C[C@@H](NC(=O)[C@@H](NC(=O)[C@@H](/N=C2\NCC(=O)N3CC[C@@H](C)[C@H]3C(=O)N[C@@H](C(C)C)C(=O)N[C@H]2C(C)(C)C)C(C)(C)C)[C@@H](C)c2ccccc2)c2nccs2)CC1 | 16 (≈ 17.5 µM) | 16 (≈ 17.5 µM) | 16 (≈ 17.5 µM) | 32 (≈ 35 µM) | 16 (≈ 17.5 µM) | 16 (≈ 17.5 µM) | 67
CC(C)[C@@H]1NC(=O)[C@@H]2[C@H](C)CCN2C(=O)CN/C(=N\[C@H](C(=O)N[C@H](C(=O)N[C@H](CC(=O)N2CCN(Cc3ccccc3)CC2)c2nccs2)[C@@H](C)c2ccccc2)C(C)(C)C)[C@H](C(C)(C)C)NC1=O | 4 (≈ 4.14 µM) | 4 (≈ 4.14 µM) | 4 (≈ 4.14 µM) | 4 (≈ 4.14 µM) | 4 (≈ 4.14 µM) | 4 (≈ 4.14 µM) | 84
CC(C)[C@@H]1NC(=O)[C@@H]2[C@H](C)CCN2C(=O)CN/C(=N\[C@H](C(=O)N[C@H](C(=O)N[C@H](CNC(=O)N2CCSC2)c2nccs2)[C@@H](C)c2ccccc2)C(C)(C)C)[C@H](C(C)(C)C)NC1=O | 4 (≈ 4.47 µM) | 4 (≈ 4.47 µM) | 4 (≈ 4.47 µM) | 4 (≈ 4.47 µM) | 4 (≈ 4.47 µM) | 2 (≈ 2.23 µM) | 100
CC(C)[C@@H]1NC(=O)[C@@H]2[C@H](C)CCN2C(=O)CN/C(=N\[C@H](C(=O)N[C@H](C(=O)N[C@H](CNC(=O)NCc2ccccc2)c2nccs2)[C@@H](C)c2ccccc2)C(C)(C)C)[C@H](C(C)(C)C)NC1=O | 8 (≈ 8.76 µM) | 16 (≈ 17.5 µM) | 16 (≈ 17.5 µM) | 16 (≈ 17.5 µM) | 8 (≈ 8.76 µM) | 4 (≈ 4.38 µM) | 100
CCSC(=O)C[C@@H](NC(=O)[C@@H](NC(=O)[C@@H](/N=C1\NCC(=O)N2CC[C@@H](C)[C@H]2C(=O)N[C@@H](C(C)C)C(=O)N[C@H]1C(C)(C)C)C(C)(C)C)[C@@H](C)c1ccccc1)c1nccs1 | ≤ 0.25 | 0.5 (≈ 0.586 µM) | ≤ 0.25 | 0.5 (≈ 0.586 µM) | ≤ 0.25 | ≤ 0.25 | 0
CCCSC(=O)C[C@@H](NC(=O)[C@@H](NC(=O)[C@@H](/N=C1\NCC(=O)N2CC[C@@H](C)[C@H]2C(=O)N[C@@H](C(C)C)C(=O)N[C@H]1C(C)(C)C)C(C)(C)C)[C@@H](C)c1ccccc1)c1nccs1 | 0.5 (≈ 0.577 µM) | 0.5 (≈ 0.577 µM) | ≤ 0.25 | 1 (≈ 1.15 µM) | 1 (≈ 1.15 µM) | ≤ 0.25 | 0
CC(C)SC(=O)C[C@@H](NC(=O)[C@@H](NC(=O)[C@@H](/N=C1\NCC(=O)N2CC[C@@H](C)[C@H]2C(=O)N[C@@H](C(C)C)C(=O)N[C@H]1C(C)(C)C)C(C)(C)C)[C@@H](C)c1ccccc1)c1nccs1 | 0.5 (≈ 0.577 µM) | 0.5 (≈ 0.577 µM) | 0.5 (≈ 0.577 µM) | 1 (≈ 1.15 µM) | 1 (≈ 1.15 µM) | ≤ 0.25 | 0
CCCC(=O)C[C@@H](NC(=O)[C@@H](NC(=O)[C@@H](/N=C1\NCC(=O)N2CC[C@@H](C)[C@H]2C(=O)N[C@@H](C(C)C)C(=O)N[C@H]1C(C)(C)C)C(C)(C)C)[C@@H](C)c1ccccc1)c1nccs1 | 1 (≈ 1.2 µM) | 1 (≈ 1.2 µM) | 1 (≈ 1.2 µM) | 2 (≈ 2.39 µM) | 2 (≈ 2.39 µM) | 0.5 (≈ 0.599 µM) | 100
CCC(=O)C[C@@H](NC(=O)[C@@H](NC(=O)[C@@H](/N=C1\NCC(=O)N2CC[C@@H](C)[C@H]2C(=O)N[C@@H](C(C)C)C(=O)N[C@H]1C(C)(C)C)C(C)(C)C)[C@@H](C)c1ccccc1)c1nccs1 | 1 (≈ 1.22 µM) | 1 (≈ 1.22 µM) | 2 (≈ 2.44 µM) | 2 (≈ 2.44 µM) | 2 (≈ 2.44 µM) | 1 (≈ 1.22 µM) | 100
CC(=O)NC[C@H]1CN(c2ccc(N3CCOCC3)c(F)c2)C(=O)O1 [LINEZOLID] | – | – | – | – | 2 (≈ 5.93 µM) | 2 (≈ 5.93 µM) | –
CN[C@H](CC(C)C)C(=O)N[C@H]1C(=O)N[C@@H](CC(N)=O)C(=O)N[C@H]2C(=O)N[C@H]3C(=O)N[C@H](C(=O)N[C@H](C(=O)O)c4cc(O)cc(O)c4-c4cc3ccc4O)[C@H](O)c3ccc(c(Cl)c3)Oc3cc2cc(c3O[C@@H]2O[C@H](CO)[C@@H](O)[C@H](O)[C@H]2O[C@H]2C[C@](C)(N)[C@H](O)[C@H](C)O2)Oc2ccc(cc2Cl)[C@H]1O [VANCOMYCIN] | – | – | – | – | > 128 | > 128 | –
